According to patent publication US20090054333A1, “Peptide inhibitors of cyclin-dependent kinase activity and uses thereof” (priority 2006, published 2009):

Legend:
endogenous cdk2 = endogenous cdk2 kinase activity after transient transfection of NIH/3T3 cells; assay type: cell-based; conditions: NIH/3T3 transfected with pEF6/V5 constructs; 48 h after transfection
Method: Kinase assays: Cell lysates from NIH/3T3 were prepared by resuspending pelleted cells in 500 μl of lysis buffer (50 mM Tris, 5 mM EDTA, 250 mM NaCl, 50 mM NaF, 0.1% Triton, 0.1 mM Na3VO4, plus protease inhibitors). An equal amount of protein for each fraction (100 μg) was immunoprecipitated with a polyclonal anti-cdk2 antibody (De Luca et al., 1997, J Biol Chem, 272, 20971-4). The complexes were pulled down with protein A-Sepharose and washed three times with lysis buffer and twice with lysis buffer containing 400 mM NaCl. The complexes were equilibrated in kinase assay buffer (20 mM HEPES pH 7.4, 10 mM MgAc, […], 1 mM DTT). In order to detect the in vitro inhibition of cdk2 activity, each sample was incubated with an equal amount (0.1 μg) of each pGEX-2T fusion protein, in a final volume of 20 μl of kinase buffer, using 5 μCi/sample of γ-ATP (Amersham Biosciences, Piscataway, N.J.) and 2 μg of Histone H1 for 30 minutes at 30° C. Kinase assays were repeated at least three times, giving an inter assay standard deviation within 10% after normalization for protein amount. […]
In FIG. 3a, asynchronously growing NIH/3T3 cells were transfected with pEF6/V5 vector, pEF6/V5-Spa310 or pEF6/V5-spacer. […] Phosphorylation of histone H1 was monitored by autoradiography. […]

NIH/3T3 cells = assay: cell cycle analysis by flow cytometry (FACS); assay type: cell-based; conditions: NIH/3T3 transiently transfected, EGFP-gated; 48 h after transfection; propidium iodide
Method: A marker plasmid expressing enhanced green fluorescent protein (EGFP)-spectrin was included in the transfection mixture. Control cells, which were not transfected with EGFP-spectrin, were used as the EGFP-negative population. Cells were harvested and examined for their cell cycle states by fluorescence-activated cell sorter (FACS) analysis. After harvest, cells were fixed by adding ice-cold 70% ethanol while vortexing. Fixed cells were stored at 4° C. for at least 30 min and then washed once with PBS. Cells were then stained with 10 μg/ml propidium iodide (Roche Applied Science, Indianapolis, Ind.), 250 μg/ml RNase (Sigma, St. Louis, Mo.) in PBS and incubated at 37° C. for 30 min in the dark. Transfected cells were gated according to their EGFP expression and the DNA content was determined by flow cytometry analysis. The percentage of cells in the different phases of the cell cycle was measured with a FACS Calibur instrument (Becton-Dickinson, San Jose, Calif.) and the data obtained were analyzed by WinMDI 2.8 software. […]
In FIG. 5a, three plasmids were co-expressed with EGFP-spectrin, in a 1:10 ratio, in transient transfection assays. Cells were harvested 48 hours after transfection, stained with propidium iodide and analyzed by flow cytometric gating for both GFP and propidium iodide. […]

## Spa310: pRb2/p130 amino acids 641-679 (39 amino acids long), SEQ ID NO:3; LTPRRVTEVRADTGGLGRSITSPTTLYDRYSSPPASTTR (listed as Homo sapiens)
Endogenous cdk2
  inhibition of cdk2-dependent histone phosphorylation (endogenous cdk2): significant inhibition
NIH/3T3 cells
  effect on cell cycle distribution: induced a G0/G1 arrest of the cell cycle

B1: Spacer: full-length pRb2/p130 spacer domain, amino acids 616-828 (SEQ ID NO:20) (protein, listed as Homo sapiens)
chain: VPTCEEVMPPQNLERADEICIAGSPLTPRRVTEVRADTGGLGRSITSPTTLYDRYSSPPASTTRRRLFVENDSPSDGGTPGRMPPQPLVNAVPVQNVSGETVSVTPVPGQTLVTMATATVTANNGQTVTIPVQGIANENGGITFFPVQVNVGGQAQAVTGSIQPLSAQALAGSLSSQQVTGTTLQVPGQVAIQQISPGGQQQKQGQSVTSSSN
Endogenous cdk2
  inhibition of cdk2-dependent histone phosphorylation (endogenous cdk2): significant inhibition
NIH/3T3 cells
  effect on cell cycle distribution: induced a G0/G1 arrest of the cell cycle
